Where two headings read alike, the source gives them in different places.
How the values were obtained:
[1] = tested on: rat bone marrow; settings: rat bone marrow micronucleus; cited from earlier work
[2] = target: CYP2C19 (Homo sapiens, UniProt P33261); settings: in vitro; cited from earlier work
[3] = Example 3 Part 2 (Regimen B) dabigatran etexilate + belumosudil plasma PK; type: in vivo, human; settings: for half-life: read-out: T1/2, geometric mean (converted)
Protocol: The ratio was defined as test/reference. In addition, the intraparticipant variability were also presented. […] No formal interim analyses were performed for this study.

[4] = target: T1, OATP1B1 (Homo sapiens, UniProt Q9Y6L6); settings: in vitro, at clinically relevant concentrations; cited from earlier work
T1 sequence (Q9Y6L6 1-691): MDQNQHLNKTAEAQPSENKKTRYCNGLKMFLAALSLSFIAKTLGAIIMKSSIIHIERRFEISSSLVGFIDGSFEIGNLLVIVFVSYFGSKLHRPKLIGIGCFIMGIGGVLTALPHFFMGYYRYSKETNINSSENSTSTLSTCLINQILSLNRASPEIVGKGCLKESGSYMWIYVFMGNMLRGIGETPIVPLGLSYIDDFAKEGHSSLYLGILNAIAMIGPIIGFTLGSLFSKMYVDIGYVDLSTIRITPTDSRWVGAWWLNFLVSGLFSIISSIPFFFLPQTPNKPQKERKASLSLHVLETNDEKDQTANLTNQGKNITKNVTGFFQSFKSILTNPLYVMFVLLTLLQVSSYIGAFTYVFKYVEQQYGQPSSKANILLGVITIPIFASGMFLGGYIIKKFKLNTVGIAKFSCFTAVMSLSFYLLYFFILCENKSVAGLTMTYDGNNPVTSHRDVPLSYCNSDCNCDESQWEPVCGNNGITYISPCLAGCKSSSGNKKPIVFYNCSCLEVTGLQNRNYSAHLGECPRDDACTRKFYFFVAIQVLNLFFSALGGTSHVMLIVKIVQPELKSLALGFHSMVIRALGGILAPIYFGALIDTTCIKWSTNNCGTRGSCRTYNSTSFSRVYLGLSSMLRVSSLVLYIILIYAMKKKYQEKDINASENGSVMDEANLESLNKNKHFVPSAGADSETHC

[5] = target: P-gp (Homo sapiens, UniProt P08183); settings: in vitro, cited from earlier work
Chain of P-gp (P08183 whole entry): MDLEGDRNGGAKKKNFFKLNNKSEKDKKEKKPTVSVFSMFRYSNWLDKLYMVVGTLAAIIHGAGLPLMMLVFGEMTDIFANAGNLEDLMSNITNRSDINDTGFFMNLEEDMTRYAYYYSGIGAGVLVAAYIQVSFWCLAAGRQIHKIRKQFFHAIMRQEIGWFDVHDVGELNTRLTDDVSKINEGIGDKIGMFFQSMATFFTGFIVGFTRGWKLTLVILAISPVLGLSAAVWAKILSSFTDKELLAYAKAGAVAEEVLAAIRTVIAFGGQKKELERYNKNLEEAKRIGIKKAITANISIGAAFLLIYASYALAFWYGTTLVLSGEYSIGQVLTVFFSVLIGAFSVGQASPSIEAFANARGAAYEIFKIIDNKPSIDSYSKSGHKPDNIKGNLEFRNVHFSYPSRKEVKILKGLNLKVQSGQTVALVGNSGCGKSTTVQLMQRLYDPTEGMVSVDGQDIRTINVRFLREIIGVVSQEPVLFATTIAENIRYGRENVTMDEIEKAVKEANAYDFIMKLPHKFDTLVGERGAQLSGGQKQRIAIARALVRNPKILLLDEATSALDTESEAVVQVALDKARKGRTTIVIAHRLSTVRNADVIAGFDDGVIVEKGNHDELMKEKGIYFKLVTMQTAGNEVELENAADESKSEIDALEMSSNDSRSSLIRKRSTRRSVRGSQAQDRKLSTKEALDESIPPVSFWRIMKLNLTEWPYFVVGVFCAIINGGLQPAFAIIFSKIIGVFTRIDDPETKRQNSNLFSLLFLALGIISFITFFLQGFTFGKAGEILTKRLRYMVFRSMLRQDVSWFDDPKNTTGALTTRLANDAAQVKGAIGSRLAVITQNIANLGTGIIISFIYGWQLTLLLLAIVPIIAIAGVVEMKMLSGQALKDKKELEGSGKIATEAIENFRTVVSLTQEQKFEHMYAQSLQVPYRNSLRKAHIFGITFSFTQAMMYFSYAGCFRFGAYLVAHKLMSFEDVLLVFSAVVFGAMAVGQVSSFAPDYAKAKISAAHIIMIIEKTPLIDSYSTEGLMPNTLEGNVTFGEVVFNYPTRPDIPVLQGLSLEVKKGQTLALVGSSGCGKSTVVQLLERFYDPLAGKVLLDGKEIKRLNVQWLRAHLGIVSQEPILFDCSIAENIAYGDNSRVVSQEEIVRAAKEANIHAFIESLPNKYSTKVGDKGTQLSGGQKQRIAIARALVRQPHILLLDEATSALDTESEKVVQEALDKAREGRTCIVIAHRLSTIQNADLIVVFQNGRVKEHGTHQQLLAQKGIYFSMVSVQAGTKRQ

[6] = clinical; settings: male, human, in vivo
Protocol: On Day 10, the victim and perpetrator IMPs were administered simultaneously.
On the evening before each dose, participants were provided with a light snack and were required to fast from all food and drink (except water) for a minimum of 10 hours until the following morning. All study interventions were administered in the fed state, following completion of a standard breakfast (with dosing planned to occur 30 minutes after the start of the breakfast).
The PK parameters underwent a natural logarithmic transformation and were analyzed using a mixed effect modelling technique. Adjusted geometric mean ratios and 90% confidence intervals (CIs) of the ratios were obtained for each comparison. The ratio was defined as test/reference. In addition, the intraparticipant variability were also presented. […] No formal interim analyses were performed for this study.

[7] = target: T2, UGT1A9 (Homo sapiens, UniProt O60656); settings: in vitro; cited from earlier work
T2 sequence (O60656 26-530): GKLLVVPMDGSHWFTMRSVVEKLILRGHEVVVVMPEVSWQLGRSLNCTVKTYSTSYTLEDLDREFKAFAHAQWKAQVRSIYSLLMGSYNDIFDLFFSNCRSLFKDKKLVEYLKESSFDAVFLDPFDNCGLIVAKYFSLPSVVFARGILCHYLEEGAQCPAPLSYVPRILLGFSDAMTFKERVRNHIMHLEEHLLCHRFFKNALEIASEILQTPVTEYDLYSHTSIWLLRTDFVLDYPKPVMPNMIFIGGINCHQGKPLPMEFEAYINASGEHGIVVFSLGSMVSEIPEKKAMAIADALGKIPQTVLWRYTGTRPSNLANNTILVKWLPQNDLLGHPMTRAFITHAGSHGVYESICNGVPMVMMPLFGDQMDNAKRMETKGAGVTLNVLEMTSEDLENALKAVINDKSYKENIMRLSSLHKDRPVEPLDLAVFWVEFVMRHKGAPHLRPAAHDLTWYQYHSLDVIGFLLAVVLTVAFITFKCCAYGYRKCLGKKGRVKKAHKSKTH

[8] = tested on: dogs; settings: cited from earlier work
[9] = target: CYP3A4 (Homo sapiens, UniProt P08684); settings: in vitro; cited from earlier work
Chain of CYP3A4 (P08684 whole entry): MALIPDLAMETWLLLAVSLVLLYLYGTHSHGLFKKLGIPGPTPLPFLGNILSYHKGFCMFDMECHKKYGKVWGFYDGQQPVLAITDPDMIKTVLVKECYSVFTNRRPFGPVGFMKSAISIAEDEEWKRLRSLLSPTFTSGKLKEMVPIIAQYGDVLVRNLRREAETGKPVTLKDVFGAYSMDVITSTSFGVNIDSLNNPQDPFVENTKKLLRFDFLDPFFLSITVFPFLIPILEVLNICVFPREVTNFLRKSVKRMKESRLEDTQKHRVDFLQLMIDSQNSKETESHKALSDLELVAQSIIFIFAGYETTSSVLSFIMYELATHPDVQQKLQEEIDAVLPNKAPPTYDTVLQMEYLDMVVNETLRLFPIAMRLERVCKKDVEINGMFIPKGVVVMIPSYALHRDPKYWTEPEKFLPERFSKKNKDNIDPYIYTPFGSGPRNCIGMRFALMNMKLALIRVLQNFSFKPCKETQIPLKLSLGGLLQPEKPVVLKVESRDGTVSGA

[10] = healthy subjects, cited from earlier work
[11] = target: CYP2D6 (Homo sapiens, UniProt P10635); settings: in vitro; cited from earlier work
Chain of CYP2D6 (P10635 whole entry): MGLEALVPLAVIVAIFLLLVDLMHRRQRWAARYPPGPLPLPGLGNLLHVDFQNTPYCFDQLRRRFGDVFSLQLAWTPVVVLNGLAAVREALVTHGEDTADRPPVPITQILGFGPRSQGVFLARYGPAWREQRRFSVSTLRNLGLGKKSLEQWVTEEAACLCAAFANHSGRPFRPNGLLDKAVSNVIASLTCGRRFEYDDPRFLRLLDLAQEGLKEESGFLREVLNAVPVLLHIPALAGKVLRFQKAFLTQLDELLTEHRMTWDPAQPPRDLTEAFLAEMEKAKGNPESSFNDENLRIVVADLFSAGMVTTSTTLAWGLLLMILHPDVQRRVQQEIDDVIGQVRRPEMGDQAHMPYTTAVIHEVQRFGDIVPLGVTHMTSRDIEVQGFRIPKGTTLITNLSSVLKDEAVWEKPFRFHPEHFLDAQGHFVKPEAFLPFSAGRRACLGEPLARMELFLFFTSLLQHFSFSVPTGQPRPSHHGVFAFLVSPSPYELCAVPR

[12] = tested on: bacterial mutagenicity (Ames); settings: cited from earlier work
[13] = Part 2, Belumosudil alone (Day 5), 200 mg
[14] = Part 2, Dabigatran etexilate + belumosudil (Day 12), 200 mg QD
[15] = coadministration of rabeprazole

Chain of CYP2C19 (P33261 whole entry): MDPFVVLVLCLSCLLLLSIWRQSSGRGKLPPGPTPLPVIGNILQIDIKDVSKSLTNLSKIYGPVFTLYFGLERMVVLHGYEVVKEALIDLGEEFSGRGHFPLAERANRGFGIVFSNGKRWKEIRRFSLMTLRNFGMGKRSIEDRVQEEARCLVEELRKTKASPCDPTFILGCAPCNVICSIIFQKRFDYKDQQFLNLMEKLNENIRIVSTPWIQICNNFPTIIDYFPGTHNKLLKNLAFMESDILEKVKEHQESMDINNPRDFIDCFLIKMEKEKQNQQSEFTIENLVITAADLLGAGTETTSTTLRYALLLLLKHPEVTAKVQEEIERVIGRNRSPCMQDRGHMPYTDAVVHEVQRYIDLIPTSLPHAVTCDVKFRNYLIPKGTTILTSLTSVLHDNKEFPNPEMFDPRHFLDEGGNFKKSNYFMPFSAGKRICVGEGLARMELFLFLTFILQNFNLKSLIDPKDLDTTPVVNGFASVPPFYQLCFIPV

CC(C)NC(=O)COc1cccc(-c2nc(Nc3ccc4[nH]ncc4c3)c3ccccc3n2)c1 [belumosudil, 2-{3-[4-(1H-indazol-5-ylamino)-2-quinazolinyl]phenoxy}-N-(propan-2-yl) acetamide]
genotoxicity [1]: not genotoxic
CYP2C19 inhibition [2]: inhibitor
AUC(0-tau), geometric mean [3, 13]: 8490 ng·h/mL
Cmax, geometric mean [3, 13]: 1710 ng/mL
T1/2, geometric mean [3, 13]: 6.199 h
AUC(0-last), geometric mean [3, 14]: 12 000 ng · h/mL
Cmax, geometric mean [3, 14]: 2180 ng/mL
T1/2, geometric mean [3, 14]: 10.371 h
AUC ([3]; male, human, plasma, oral, 200 mg QD, read-out: AUC(0-tau), geometric mean): 11000 ng·h/mL
half-life ([3]; male, human, plasma, oral, 200 mg, Part 2, Belumosudil alone (Day 5), 200 mg): ~6 h
half-life ([3]; male, human, plasma, oral, 200 mg, Part 2, Dabigatran etexilate + belumosudil (Day 12), 200 mg QD): ~10 h
Tmax ([3]; male, human, plasma, oral, 200 mg, read-out: median Tmax): 1.5 to 2 h
OATP1B1 inhibition [4]: inhibits
P-gp inhibition ([5]; at clinically relevant concentrations): inhibits
P-gp substrate status [5]: substrate of P-gp
Tmax [6]: 1.5 to 3 h
increase of exposures (Cmax and AUC) following multiple dosing [6]: 1.30-1.49 fold
AUC(0-last), geometric mean ([6]; 200 mg): 9200 ng·h/mL
AUC(0-tau), geometric mean ([6]; 200 mg): 9330 ng·h/mL
UGT1A9 inhibition [7]: inhibitor
dose with spermatozoa degeneration [8]: 35 mg/kg/day
metabolism [9]: primarily metabolized by CYP3A4 and to a lesser extent by CYP2C8, CYP2D6, and UGT1A9
effect on belumosudil exposure ([10]; coadministered with itraconazole): no clinically meaningful effect
decrease of AUC ([10]; coadministration of omeprazole): 47%
decrease of Cmax ([10]; coadministration of omeprazole): 68%
decrease of AUC [10, 15]: 80%
decrease of Cmax [10, 15]: 87%
decrease of AUC ([10]; coadministration of rifampin): 72%
decrease of Cmax ([10]; coadministration of rifampin): 59%
CYP2D6 inhibition [11]: inhibitor
genotoxicity [12]: not genotoxic

Reference: patent US20260232763A1 (Kadmon Corporation, LLC, priority 2023, published 2026)
